Data: US5817667A, “Compounds and methods for the treatment of cancer” (University of Georgia Research Foudation, priority 1994, dated 1998)

Columns and labels:
CCRF-CEM = assay: NCI cancer screening, growth inhibition (SRB); assay type: cell-based; conditions: Leukemia, 48 hours exposure
RPMI-2.26 = assay: NCI cancer screening, growth inhibition (SRB); assay type: cell-based; conditions: 48 h, read-out: Log10 GI50 (converted)
A549/ATCC = assay: NCI cancer screening, growth inhibition (SRB); assay type: cell-based; conditions: Non-Small Cell Lung Cancer, 48 hours exposure
HOP-62 = assay: NCI cancer screening, growth inhibition (SRB); assay type: cell-based; conditions: Non-Small Cell Lung Cancer, 48 hours exposure
HCT-15 = assay: NCI cancer screening, growth inhibition (SRB); assay type: cell-based; conditions: Colon Cancer, 48 hours exposure
HT29 = assay: NCI cancer screening, growth inhibition (SRB); assay type: cell-based
SNB-19 = assay: NCI cancer screening, growth inhibition (SRB); assay type: cell-based; conditions: CNS Cancer, 48 hours exposure
LOX D6VI = assay: NCI cancer screening, growth inhibition (SRB); assay type: cell-based; conditions: Melanoma, 48 hours exposure
M14 = assay: NCI cancer screening, growth inhibition (SRB); assay type: cell-based; conditions: Melanoma, 48 hours exposure
SK-MEL-28 = assay: NCI cancer screening, growth inhibition (SRB); assay type: cell-based; conditions: Melanoma, 48 hours exposure
UACC-257 = assay: NCI cancer screening, growth inhibition (SRB); assay type: cell-based
OROV1 = assay: NCI cancer screening, growth inhibition (SRB); assay type: cell-based; conditions: Ovarian Cancer; 48 hours exposure
Excerpt: PG=100×(Mean ODtest -Mean ODtzero)/(Mean ODtzero)

OVCAR-3 = assay: NCI cancer screening, growth inhibition (SRB); assay type: cell-based; conditions: Homo sapiens, OVCAR-3, 48 h, read-out: Log10 GI50 (converted)
OVCAR-8 = assay: NCI cancer screening, growth inhibition (SRB); assay type: cell-based; conditions: Homo sapiens, OVCAR-8, 48 h, read-out: Log10 GI50 (converted)
SK-OV-3 = assay: NCI cancer screening, growth inhibition (SRB); assay type: cell-based; conditions: Homo sapiens, SK-OV-3, 48 h, read-out: Log10 GI50 (converted)
785-4 = assay: NCI cancer screening, growth inhibition (SRB); assay type: cell-based; conditions: Renal Cancer, 48 hours exposure
ACHN = assay: NCI cancer screening, growth inhibition (SRB); assay type: cell-based; conditions: Renal Cancer, 48 hours exposure
RXF-393 = assay: NCI cancer screening, growth inhibition (SRB); assay type: cell-based; conditions: Renal Cancer, 48 hours exposure
SN12C = assay: NCI cancer screening, growth inhibition (SRB); assay type: cell-based; conditions: Renal Cancer, 48 hours exposure
UO-31 = assay: NCI cancer screening, growth inhibition (SRB); assay type: cell-based; conditions: Renal Cancer, 48 hours exposure
PC-3 = assay: NCI cancer screening, growth inhibition (SRB); assay type: cell-based; conditions: Prostate Cancer, 48 hours exposure
HS578T = assay: NCI cancer screening, growth inhibition (SRB); assay type: cell-based
MDA-MB-435 = assay: NCI cancer screening, growth inhibition (SRB); assay type: cell-based; conditions: Homo sapiens, MDA-MB-435, 48 h, read-out: Log10 GI50 (converted)
BT-549 = assay: NCI cancer screening, growth inhibition (SRB); assay type: cell-based; conditions: Breast Cancer, 48 hours exposure
Colon 38 tumor cells = assay: In vivo treatment of Colon 38 tumor cells implanted sc in BDF1 mice; conditions: 25 mg/kg/dose twice daily for five days, FIG. 2
Excerpt: The graph plots tumor growth as a percentage of original tumor weight vs. days. Treatment of the mice occurred in days 1, 2, 3, 4 and 5.
Colon 38 tumor cells were implanted sc to BDF1 mice.

mice = assay: Toxicity to mice in the P388 leukemia protocol; assay type: in vivo, BDF1 mice; conditions: 75 mg/kg/dose ip, twice daily for five days
Description: 10^6 Leukemia P388 cells were implanted ip to BDF1 mice obtained from Southern Research Institute, Alabama. L(-)-OddC was administered ip twice daily for five days starting one day after tumor cell implantation.

K2112 = conditions: Colon Cancer; 48 hours exposure
MDA-MB-231/ATCC [1] = conditions: Breast Cancer; 48 hours exposure
MDA-MB-231/ATCC [2] = assay: cells; conditions: Homo sapiens, MDA-MB-231, 48 h, read-out: Log10 GI50 (converted)
[3] = read-out: Log10 GI50 (converted)

With `Nc1ccn([C@@H]2CO[C@H](CO)O2)c(=O)n1` [(-)-OddC, (-)-(2S,4S)-1-(2-hydroxymethyl-1,3-dioxolan-4-yl)cytosine] as the compound, how does the GI50 (CCRF-CEM; Homo sapiens, CCRF-CEM, read-out: Log10 GI50 (converted)) read?
Its GI50 is 229 nM.

What about the “Log10 TGI” value (CCRF-CEM) of the same compound?
The value was over -4.00.

And the GI50 (RPMI-2.26)?
The GI50 was 93.3 µM.

What about the GI50 (A549/ATCC; Homo sapiens, A549, read-out: Log10 GI50 (converted)) of the same compound?
Its GI50 is 977 nM.

What about the “Log10 TGI” value (A549/ATCC) of the same compound?
Its value is over -4.00.

What about the GI50 (HOP-62; Homo sapiens, HOP-62, read-out: Log10 GI50 (converted)) of the same compound?
Its GI50 is 589 nM.

And the “Log10 TGI” value (HOP-62)?
Its value is -4.71.

What about the “Log10 TGI” value (HCT-15) of the same compound?
Its value is over -4.00.

What about the GI50 (HCT-15; Homo sapiens, HCT-15, read-out: Log10 GI50 (converted)) of the same compound?
Its GI50 is 4.07 µM.

What about the “Log10 TGI” value (HT29; Colon Cancer, 48 hours exposure) of the same compound?
Its value is over -4.00.

And the GI50 (HT29; Homo sapiens, HT-29, 48 h, read-out: Log10 GI50 (converted))?
Its GI50 is over 100 µM.

What about the “Log10 TGI” value (SNB-19) of the same compound?
Its value is over -4.00.

And the GI50 (SNB-19; Homo sapiens, SNB-19, read-out: Log10 GI50 (converted))?
Its GI50 is 1950 nM.

What about the “Log10 TGI” value (LOX D6VI) of the same compound?
The value was over -4.00.

And the GI50 (LOX D6VI; [3])?
The GI50 was 407 nM.

What about the GI50 (M14; Homo sapiens, M14, read-out: Log10 GI50 (converted)) of the same compound?
Its GI50 is 537 nM.

What about the “Log10 TGI” value (M14) of the same compound?
The value was -5.07.

What about the GI50 (SK-MEL-28; Homo sapiens, SK-MEL-28, read-out: Log10 GI50 (converted)) of the same compound?
Its GI50 is 49 µM.

What about the “Log10 TGI” value (SK-MEL-28) of the same compound?
The value was over -4.00.

What about the GI50 (UACC-257; Homo sapiens, UACC-257, 48 h, read-out: Log10 GI50 (converted)) of the same compound?
The GI50 was over 100 µM.

What about the “Log10 TGI” value (UACC-257; Melanoma, 48 hours exposure) of the same compound?
Its value is over -4.00.

What about the “Log10 TGI” value (OROV1) of the same compound?
The value was over -4.00.

And the GI50 (OVCAR-3)?
Its GI50 is 36.3 µM.

What about the GI50 (OVCAR-8) of the same compound?
The GI50 was 1510 nM.

And the GI50 (SK-OV-3)?
The GI50 was 4.47 µM.

What about the “Log10 TGI” value (785-4) of the same compound?
The value was over -4.00.

What about the GI50 (785-4; [3]) of the same compound?
The GI50 was 4.37 µM.

And the GI50 (ACHN; Homo sapiens, ACHN, read-out: Log10 GI50 (converted))?
Its GI50 is 347 nM.

What about the “Log10 TGI” value (ACHN) of the same compound?
Its value is over -4.00.

And the GI50 (RXF-393; Homo sapiens, RXF 393, read-out: Log10 GI50 (converted))?
Its GI50 is 676 nM.

What about the “Log10 TGI” value (RXF-393) of the same compound?
The value was over -4.00.

What about the GI50 (SN12C; Homo sapiens, SN12C, read-out: Log10 GI50 (converted)) of the same compound?
Its GI50 is 537 nM.

What about the “Log10 TGI” value (SN12C) of the same compound?
The value was over -4.00.

What about the GI50 (UO-31; Homo sapiens, UO-31, read-out: Log10 GI50 (converted)) of the same compound?
The GI50 was 2510 nM.

What about the “Log10 TGI” value (UO-31) of the same compound?
The value was over -4.00.

And the GI50 (PC-3; Homo sapiens, PC-3, read-out: Log10 GI50 (converted))?
Its GI50 is 513 nM.

And the “Log10 TGI” value (PC-3)?
The value was over -4.00.

And the “Log10 TGI” value (HS578T; Breast Cancer, 48 hours exposure)?
Its value is over -4.00.

And the GI50 (HS578T; Homo sapiens, Hs-578T, 48 h, read-out: Log10 GI50 (converted))?
The GI50 was over 100 µM.

What about the GI50 (MDA-MB-435) of the same compound?
Its GI50 is 24 µM.

And the “Log10 TGI” value (BT-549)?
Its value is over -4.00.

What about the GI50 (BT-549; Homo sapiens, BT-549, read-out: Log10 GI50 (converted)) of the same compound?
Its GI50 is 25.7 µM.

And the “colon tumor cell growth” value (Colon 38 tumor cells)?
The value was “retarded”.

What about the “toxicity to the mice” value (mice) of the same compound?
Its value is “toxic to the mice”.

And the “Log10 TGI” value (K2112)?
Its value is over -4.00.

What about the “Log10 TGI” value (MDA-MB-231/ATCC [1]) of the same compound?
Its value is over -4.00.

What about the GI50 (MDA-MB-231/ATCC [2]) of the same compound?
The GI50 was over 100 µM.
